The values below come from patent US20080044479A1, “Antimicrobial sanitizing formulations with skin protection properties” (priority 2006, published 2008).

SMILES strings stand for the structures.

For assay [1], the system named is bacteria on skin surfaces. The assay can be described thus: Persistence of bacterial reduction on skin surfaces. It counts as in vivo. From the text: It has been discovered that incorporation of at least one of the aforementioned antimicrobial agents in a formulation comprised of a Surfactant Phase, and a Wax Phase result in a product which is particularly effective in preventing cross-contamination of pathogenic microorganisms in the workplace. […] It is applicable to any area of intact skin, and will kill pathogenic bacteria on contact and remain effective for extended periods of time. The mechanism of microbicidal action of these antibacterial agents is thought to be due to the disruption of intermolecular actions of the microbes.

Assay [2] deals with gram-positive and gram-negative bacteria, plus fungi and yeasts. The conditions noted are these: see list in U.S. Pat. Nos. 6,187,327 and 6,517,854; cited from earlier work.

On to `Oc1cc(Cl)ccc1Oc1ccc(Cl)cc1Cl` [TRICLOSAN, 2,4,4′-trichloro-2′-hydroxydiphenyl ether], for which the “period for which the incidence of bacteria on skin surfaces is significantly reduced” value in assay [1] was 3 to 4 h. Further, in assay [2], the efficacy against microorganisms entry is reported as “demonstrated efficacy”.
